Test results published in patent publication US20250295734A1, “ANTICOAGULANT PROTEINS AND THEIR USE FOR TREATING DISEASES ASSOCIATED WITH THE ACTIVATION OF NEUTROPHILS” (BIOXODES, priority 2018, published 2025).

Tested on: human washed platelets
Assay: In vitro platelet aggregation assay
Type: cell-based
Conditions: agent alone (TRAP 20 μM, ADP 20 μM or Ir-CPI 500 μg/100 μL); n=1
Experimental: Blood from healthy human donors, who had not taken anti-platelet agents within the 15 days prior to collection, was collected in citrated tubes and centrifuged for 13 min at 200 g. The platelet-rich plasma was collected and centrifuged for 13 min at 900 g in Tyrode buffer (138 mM NaCl, 2.9 mM KCl, 12 mM NaHCO3, 5.5 mM glucose, 1.8 mM CaCl2 and 0.4 mM MgCl2, pH 7.4) containing 0.2% BSA, apyrase 0.02 U/mL and PGI2 500 nM. Washed platelets were resuspended in the Tyrode/BSA 0.2%/apyrase/PGI2 solution and centrifuged at 900 g for 13 min. Platelets were resuspended in a Tyrode/BSA 0.2% solution at a concentration of 3.10^8 platelets/mL. Platelets were kept at 37° C. for 30 min in a solution containing […]. Next, platelets were incubated at 37° C. under agitation for 5 to 10 minutes in an aggregometer APACT 4004 with ADP (adenosine diphosphate), TRAP (Thrombin Receptor-Activating Peptide) and/or Ir-CPI.
The effect of Ir-CPI on platelet aggregation was assessed in vitro by using isolated human washed platelets (n=1).

Nc1ncnc2c1ncn2[C@@H]1O[C@H](COP(=O)(O)OP(=O)(O)O)[C@@H](O)[C@H]1O [ADP, adenosine diphosphate, reference compound]
Aggregation Latency: 51.8 s | Aggregation Max: 6.9% | Aggregation Slope: 19.4 %/min
